≈ marks a conversion by molar mass, not a printed value.
Key:
Assay type in all cases: functional
[1] = system: Pichia kudriavzevii; assay: Antifungal activity against Candida krusei ATCC 6258 assessed as inhibition of fungal growth incubated for 72 hrs by CLSI based liquid medium microdilution method
[2] = system: Candida tropicalis; assay: Antifungal activity against Candida tropicalis ATCC 1369 assessed as inhibition of fungal growth incubated for 72 hrs by CLSI based liquid medium microdilution method
[3] = system: Candida albicans; assay: Antifungal activity against Candida albicans ATCC SC5314 assessed as inhibition of fungal growth incubated for 72 hrs by CLSI based liquid medium microdilution method
[4] = system: Cryptococcus neoformans; assay: Antifungal activity against Cryptococcus neoformans ZKCC 2209 assessed as inhibition of fungal growth incubated for 72 hrs by CLSI based liquid medium microdilution method
[5] = system: Aspergillus fumigatus; assay: Antifungal activity against Aspergillus fumigatus KM8001 assessed as inhibition of fungal growth incubated for 72 hrs by CLSI based liquid medium microdilution method

MIC50 [1] | MIC50 [2] | MIC50 [3] | MIC50 [4] | MIC50 [5] | SMILES
2 mg/L (≈ 4.38 µM) | 1 mg/L (≈ 2.19 µM) | 2 mg/L (≈ 4.38 µM) | 1 mg/L (≈ 2.19 µM) | 4 mg/L (≈ 8.76 µM) | COc1ccc(C(=O)N2CCC(NC(=O)c3nc(-n4ccnc4)c4ccccc4n3)CC2)cc1
4 mg/L (≈ 10.2 µM) | 4 mg/L (≈ 10.2 µM) | 2 mg/L (≈ 5.08 µM) | 1 mg/L (≈ 2.54 µM) | > 8 mg/L | CS(=O)(=O)c1ccc(NC(=O)c2nc(-n3ccnc3)c3ccccc3n2)cc1
1 mg/L (≈ 2.33 µM) | 1 mg/L (≈ 2.33 µM) | 0.5 mg/L (≈ 1.17 µM) | 0.5 mg/L (≈ 1.17 µM) | 2 mg/L (≈ 4.66 µM) | CS(=O)(=O)c1ccc(NC(=O)c2nc(-n3cncn3)c3cc(Cl)ccc3n2)cc1
1 mg/L (≈ 2.13 µM) | 0.5 mg/L (≈ 1.07 µM) | 2 mg/L (≈ 4.27 µM) | 2 mg/L (≈ 4.27 µM) | 4 mg/L (≈ 8.54 µM) | CC(=O)c1ccc(C(=O)N2CCC(NC(=O)c3nc(-n4ccnc4)c4ccccc4n3)CC2)cc1
4 mg/L (≈ 9.9 µM) | 4 mg/L (≈ 9.9 µM) | > 8 mg/L | 2 mg/L (≈ 4.95 µM) | > 8 mg/L | O=C(NC1CCCc2ccccc21)c1nc(-n2ccnc2)c2cc(Cl)ccc2n1 (stereo not given)
1 mg/L (≈ 2.75 µM) | 2 mg/L (≈ 5.5 µM) | 2 mg/L (≈ 5.5 µM) | 4 mg/L (≈ 11 µM) | 4 mg/L (≈ 11 µM) | O=C(NCc1ccccc1)c1nc(-n2ccnc2)c2cc(Cl)ccc2n1

Continued, molecule first:

SMILES | MIC50 [1] | MIC50 [2] | MIC50 [3] | MIC50 [4] | MIC50 [5]
CS(=O)(=O)c1ccc(NC(=O)c2nc(-n3cncn3)c3ccccc3n2)cc1 | 2 mg/L (≈ 5.07 µM) | 2 mg/L (≈ 5.07 µM) | 1 mg/L (≈ 2.54 µM) | 2 mg/L (≈ 5.07 µM) | 4 mg/L (≈ 10.1 µM)
CC(=O)c1ccc(NC(=O)c2nc(-n3cncn3)c3cc(Cl)ccc3n2)cc1 | 1 mg/L (≈ 2.55 µM) | 0.5 mg/L (≈ 1.27 µM) | 0.5 mg/L (≈ 1.27 µM) | 2 mg/L (≈ 5.09 µM) | 4 mg/L (≈ 10.2 µM)
CS(=O)(=O)c1ccc(NC(=O)c2nc(-n3ccnc3)c3cc(Cl)ccc3n2)cc1 | 2 mg/L (≈ 4.67 µM) | 2 mg/L (≈ 4.67 µM) | 1 mg/L (≈ 2.34 µM) | 0.5 mg/L (≈ 1.17 µM) | 4 mg/L (≈ 9.35 µM)
O=C(NC1CCCc2ccccc21)c1nc(-n2cncn2)c2ccccc2n1 (stereo not given) | 2 mg/L (≈ 5.4 µM) | 1 mg/L (≈ 2.7 µM) | 2 mg/L (≈ 5.4 µM) | 4 mg/L (≈ 10.8 µM) | > 8 mg/L
O=C(NCc1ccccc1)c1nc(-n2ccnc2)c2ccccc2n1 | 1 mg/L (≈ 3.04 µM) | 2 mg/L (≈ 6.07 µM) | 2 mg/L (≈ 6.07 µM) | 4 mg/L (≈ 12.1 µM) | > 8 mg/L
O=C(NC1CCN(C(=O)c2ccccc2)CC1)c1nc(-n2cncn2)c2ccccc2n1 | 1 mg/L (≈ 2.34 µM) | 1 mg/L (≈ 2.34 µM) | 1 mg/L (≈ 2.34 µM) | 2 mg/L (≈ 4.68 µM) | 4 mg/L (≈ 9.36 µM)
